According to article PMC10604720, “Unraveling the Mechanism of Epichaperome Modulation by Zelavespib: Biochemical Insights on Target Occupancy and Extended Residence Time at the Site of Action” (Biomedicines, 2023):

Columns and labels:
[1] = Biodistribution / PET pharmacokinetics of [124I]-zelavespib in MDA-MB-468 tumor-bearing mice (data of ref 32, refitted to exponential decay); type: in vivo, mouse
Protocol: Iodine-124 is a ‘non-residualizing’ isotope (i.e., free iodine-124 washes out from cells), and therefore, data derived from positron emission tomography imaging of MDA-MB-468-bearing mice that were administered a tracer amount of [^124I]-PU-AD can be used to determine real-time zelavespib concentrations delivered to tumors. Because positron emission tomography provides information on radioactivity and not molar concentrations, radioactivity data from Pillarsetty et al. were transformed into tumor concentrations to calculate the time-dependent zelavespib concentrations in tumors for an administered dose of 50 mg/kg. The drug concentration (in μM) in the tumor water space, [Drugtumor], at the time t post-administration is therefore: [Drugtumor]t=Drugdose·[Atumor]t/100%·1/W·1×10^6/MW µM where Drugdose is the administered drug dose (in mg), [Atumor]t is the activity concentration (in % injected dose per milliliter, %ID/mL) of the surrogate radiotracer, W is the water space of the tissue (in mL/g), MW is the molecular weight of the drug (i.e., zelavespib), and the factor 1 × 10^6 converts the concentration to μM. For the drug zelavespib and the surrogate radiotracer […] co-injected in a ratio of ~1 to 10,000, the drug itself is essentially the only significant form of the drug–surrogate combination in the tumor. Thus, for a co-administered dose of zelavespib (zelavespibdose in mg) and a tracer amount of [^124I]-PU-AD, the drug concentration in the tumor water space (using an average water space, W = 0.8 mL/g, and the molecular weight MW = 512) is: [Zelavespibtumor]t=Zelavespibdose · [Atumor]t/100%·2.44×10^3 µM
To study the zelavespib–epichaperome interaction in vivo, we selected, for simplicity, an epichaperome-positive tumor model (e.g., subcutaneously xenografted MDA-MB-468 tumors in mice). Using whole-body PET imaging after the injection of ^124I-labeled zelavespib, Pillarsetty et al. reported drug presence in MDA-MB-468 tumors up to 120 h post-single dose administration (~T1/2 = 60 h). Conversely, zelavespib was no longer observed in non-disease, non-metabolizing tissues after ~8 h, clearing rapidly from plasma, paralleled by a similar rapid clearance from normal tissues (i.e., chaperone-positive but epichaperome-negative). In these tumors, a clear relationship between tumor retention, pharmacodynamic effects, and anti-tumor activity was observed, supporting the notion that zelavespib was in residence with its target over the time it resided in these tumors.
These values are very much in agreement with those reported for zelavespib in human patients. […] Contrasting plasma and normal tissues and organs, the distribution of zelavespib in tumors was best fitted using a bi-exponential model. […] The first phase thus reflects the clearance of systemic agent, while the second is attributable to specific tumor retention.
Figure 1 Biodistribution of zelavespib in MDA-MB-468 tumor-bearing mice. (a) Biodistribution of [^124I]-Zelavespib in MDA-MB-468 tumors, organs, tissues, and plasma as per ref. [32]. Data are presented as means ± s.d., five mice per time point. Curves for blood, lung, heart, muscle, bone, and brain were fitted using a one-phase decay equation, and kinetics of zelavespib clearance were determined. Tumor curve was fitted to a two-phase exponential decay. k, kfast, and kslow are the rate constants. Half-life (T1/2) is computed as ln(2)/k. […] (b) Illustrative schematic showing the distinct binding kinetics of zelavespib to epichaperomes (slow off-rate) and to chaperone assemblies (fast off-rate). The tumor pharmacokinetics profile recorded in the Phase 2 interval may represent a direct reflection of the in vivo kinetics of target–drug unbinding. koff, kinetic rate constant for dissociation of an epichaperome-zelavespib assembly. Rt, retention time. […]

[2] = parameters: method as in PMID 31668946; conditions: whole-body PET imaging, mice; cited from earlier work
[3] = MDA-MB-468 tumor-bearing mice, one-phase exponential decay fit of data of ref 32
[4] = MDA-MB-468 tumor, bi-exponential fit, Phase 1: 0 to 8 h, data of ref 32
[5] = MDA-MB-468 tumor, bi-exponential fit, slow terminal clearance phase, data of ref 32
[6] = one-phase decay fit of data of ref 32

## CC(C)NCCCn1c(Sc2cc3c(cc2[124I])OCO3)nc2c(N)ncnc21 [[^124I]-zelavespib]
[1]; [3]
  half-life (T1/2), bone: 2.844 h
  half-life (T1/2), brain: 2.655 h
  half-life (T1/2), heart: 3.102 h
  half-life (T1/2), lung: 3.367 h
  half-life (T1/2), muscle: 5.034 h
  half-life (T1/2), plasma/blood: 4.380 h
[1]; [4]
  tumor Phase 1 T1/2: 2.876 h
  tumor Phase 1 rate constant k (kfast): 0.2410 h⁻¹
[1]; [5]
  tumor Phase 2 T1/2: 46.80 h
  tumor Phase 2 rate constant k (kslow): 0.0148 h⁻¹
[1]; [6]
  clearance rate constant k, blood: 0.1583 h⁻¹
  clearance rate constant k, bone: 0.2437 h⁻¹
  clearance rate constant k, brain: 0.2611 h⁻¹
  clearance rate constant k, heart: 0.2234 h⁻¹
  clearance rate constant k, lung: 0.2059 h⁻¹
  clearance rate constant k, muscle: 0.1377 h⁻¹
[2]
  T1/2 in MDA-MB-468 tumors: ~60 h
  drug presence in MDA-MB-468 tumors, time post-single dose administration: up to 120 h
